Test results reported in patent publication US10179770B2, “Quinolines derivatives as novel anticancer agents” (GENOSCIENCE PHARMA, priority 2013, dated 2019).

Legend:
SK-MEL-28 cell line = experiment: Combination of XIX-3 and Zelboraf, Bliss independence model; assay type: cell-based, human; details: XIX-3 associated with Zelboraf, 72 h
Experimental: The human melanoma cell line SK-MEL-28 was cultured in Minimum Essential Medium (MEM) supplemented with 10% Fetal Bovine Serum and 1% Penicillin-Streptomycin and maintained at 37° C. with 5% CO2.
SK-MEL-28 cells were plated at 2,500 cells per well onto 96-well plates in 90 μL of media per well and were allowed to grow overnight before the assay. XIX-3 and Zelboraf, a compound used for treatment for BRAF V600E mutation-positive metastatic melanoma, were added at different concentrations (combinations of five concentrations of XIX-3 and six concentrations of Zelboraf) to each well, and cell cultures were incubated for 72 h. […] Cell outgrowth was measured using a […] Aqueous One Solution Cell Proliferation Assay (Promega) and a TECAN Sunrise plate reader.
(§1) In each experiment, each point represents the average of triplicates in cell culture. The effects of drug-drug combinations are evaluated in the Bliss independence model (Prichard M. N. and Shipman C. Jr. Antivir. Res. 1990 (14) 181-205; Prichard, M. L. et al. Antimicrob Agents Chemother 1993 (37) 540-545). The theoretical additive effect is calculated from the dose-response curves of individual compounds by the equation: Z=X+Y(1−X) (7) Where: • Z represents the total inhibition produced by the combination of drugs X and Y. • X and Y represent the inhibition produced by drugs X and Y alone, respectively. […]

OVCAR-4 = experiment: NCI-60 screen (SRB); assay type: cell-based; details: OVCAR-4 (Ovarian)
In short: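 RPMI 1640/5% FBS/2 mM Gln; 24 h attach; Tz plates TCA-fixed at dosing; 5 conc. (10-fold or ½-log), 48 h, 37 °C, 5% CO2; SRB, A515; GI50/TGI/LC50 from Tz, C, Ti.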

MOLM-14 cell line = experiment: Combination of XXIV-3 and Cytarabine, Bliss independence model; assay type: cell-based, human; details: XXIV-3 associated with Cytarabine, 72 h
Experimental: The human leukemia cell line MOLM-14 was cultured in Minimum Essential Medium Alpha Medium (MEM) supplemented with 10% Fetal Bovine Serum (FBS) and 1% Penicillin-Streptomycin and maintained at 37° C. with 5% CO2. 30,000 cells in 180 μL of MEM 5% FBS 1% P/S were plated onto 96-well plates immediately before the assay. Compounds were added at different concentrations (combinations of five concentrations of XXIV-3 and six concentrations of Cytarabine) to each well, and cell cultures were incubated for 72 h. Vehicle (H2O) was used as a control, and all compounds were tested in a constant percentage of vehicle. Cell outgrowth was measured using the CellTiter-Glo luminescent cell viability assay as described by the manufacturer (Promega, Ref G7571 Madison, Wis., USA) using an Infinite F200 Pro TECAN plate reader. […]
as §1, with “The” for “In each experiment, each point represents the average of triplicates in cell culture. The”, “1993(37)” for “1993 (37)”

Structure (SMILES) | Combination effect on cell viability (Bliss independence model) (SK-MEL-28 cell line) | GI50 (OVCAR-4; Homo sapiens) [µM] | CC50 (OVCAR-4; Homo sapiens, read-out: LC50 (the source's name)) [µM] | TGI (OVCAR-4) [µM] | Growth percent at 10 μM (OVCAR-4; 10 μM) | Combination effect on cell viability (Bliss independence model) (MOLM-14 cell line)
CCN(CC)C1CCN(C(C)c2cc(-c3ccccc3)nc3ccccc23)CC1.Cl.Cl (stereo not drawn) [XIX-3, 2-phenyl-4-{1-[4-(N,N-diethylamino)piperidin-1-yl]-eth-1-yl}quinoline dihydrochloride] | additive effect (between −20% to +20% indicates additive effect) | 11 | 52 | 24 | ++ (cell growth 40 > % < 60) | 
CCN(CC)C1CCN(C(C)c2cc(-c3ccc4ccccc4c3)nc3ccccc23)CC1.Cl.Cl (stereo not drawn) [XXIV-3, 2-(2-naphtyl)-4-{1-[4-(N,N-diethylamino)-piperidin-1-yl]-eth-1-yl}quinoline dihydrochloride] |  |  |  |  |  | additive effect (between −20% to +20% indicates additive effect)
